Experimental data taken from PMC5740388, “In Vitro Antibacterial Properties of Cefiderocol, a Novel Siderophore Cephalosporin, against Gram-Negative Bacteria” (Antimicrobial Agents and Chemotherapy, 2017).
Like-named read-outs stand apart in the source and are kept apart here.

Tests used:
Assay in all cases: competition with […]benzylpenicillin for PBPs
Assay type in all cases: binding
[1] = target: T1, PBP4 of E. coli NIHJ JC-2 (Escherichia coli, UniProt P24228); details: covalent; read-out: IC50 (μg/ml) / E. coli NIHJ JC-2 / Ceftazidime
T1 construct: gene dacB

[2] = target: T2, PBP1b of P. aeruginosa ATCC 27853 (Pseudomonas aeruginosa, UniProt G3XD31); details: covalent; read-out: IC50 (μg/ml) / Ceftazidime
T2 construct: gene mrcB
T2 sequence (G3XD31 1-774): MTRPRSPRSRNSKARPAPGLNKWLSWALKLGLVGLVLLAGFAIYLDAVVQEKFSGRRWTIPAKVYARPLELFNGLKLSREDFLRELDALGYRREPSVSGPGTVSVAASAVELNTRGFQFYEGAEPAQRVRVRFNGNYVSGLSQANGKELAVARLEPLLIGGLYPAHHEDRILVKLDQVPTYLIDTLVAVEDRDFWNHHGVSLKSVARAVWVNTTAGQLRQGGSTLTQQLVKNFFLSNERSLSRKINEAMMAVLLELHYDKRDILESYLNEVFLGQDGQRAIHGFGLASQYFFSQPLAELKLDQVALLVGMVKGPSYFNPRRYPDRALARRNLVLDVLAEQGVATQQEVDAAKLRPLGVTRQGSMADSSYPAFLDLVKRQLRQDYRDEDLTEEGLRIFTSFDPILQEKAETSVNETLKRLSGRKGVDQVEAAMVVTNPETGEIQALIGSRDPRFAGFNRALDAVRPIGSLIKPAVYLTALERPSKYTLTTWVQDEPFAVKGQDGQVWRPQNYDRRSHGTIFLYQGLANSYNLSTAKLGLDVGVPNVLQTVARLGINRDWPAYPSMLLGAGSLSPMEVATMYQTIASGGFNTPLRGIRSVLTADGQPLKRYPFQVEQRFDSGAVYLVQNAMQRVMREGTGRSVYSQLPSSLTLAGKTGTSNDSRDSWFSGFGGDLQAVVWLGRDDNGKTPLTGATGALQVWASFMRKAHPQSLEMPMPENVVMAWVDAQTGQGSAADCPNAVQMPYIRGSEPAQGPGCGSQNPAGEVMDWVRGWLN

[3] = target: T3, PBP2 of K. pneumoniae SR22291 (Klebsiella pneumoniae, UniProt A6T696); details: covalent
T3 construct: gene mrdA
T3 sequence (A6T696 1-633): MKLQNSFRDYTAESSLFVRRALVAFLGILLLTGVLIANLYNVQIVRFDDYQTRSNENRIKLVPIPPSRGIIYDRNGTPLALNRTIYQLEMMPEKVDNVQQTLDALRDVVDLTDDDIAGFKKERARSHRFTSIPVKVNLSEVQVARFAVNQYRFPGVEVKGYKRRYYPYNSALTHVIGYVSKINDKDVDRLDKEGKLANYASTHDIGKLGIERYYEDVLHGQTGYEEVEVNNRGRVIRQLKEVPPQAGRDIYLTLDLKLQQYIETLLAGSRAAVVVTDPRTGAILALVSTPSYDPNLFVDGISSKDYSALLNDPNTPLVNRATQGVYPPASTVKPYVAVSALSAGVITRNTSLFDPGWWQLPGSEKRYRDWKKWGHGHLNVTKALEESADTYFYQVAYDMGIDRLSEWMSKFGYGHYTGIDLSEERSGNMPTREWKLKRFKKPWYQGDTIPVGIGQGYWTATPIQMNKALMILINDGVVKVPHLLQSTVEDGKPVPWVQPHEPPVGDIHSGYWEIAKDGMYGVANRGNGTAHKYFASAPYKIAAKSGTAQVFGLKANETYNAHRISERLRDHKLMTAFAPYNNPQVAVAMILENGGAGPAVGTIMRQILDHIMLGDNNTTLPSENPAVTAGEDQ

[4] = target: T1, PBP4 of E. coli NIHJ JC-2; details: read-out: % inhibition at 4 μg/ml

Row | Compound | IC50 [1] [nM] | IC50 [2] [µM] | IC50 ([3]; read-out: IC50 (μg/ml) / K. pneumoniae SR22291 / Ceftazidime (converted)) [nM] | inhibition at 4 µg/mL [4] [%] | IC50 ([3]; read-out: IC50 (μg/ml) / K. pneumoniae SR22291 / Cefiderocol (converted)) [nM]
1 | CC(C)(O/N=C(\C(=O)N[C@@H]1C(=O)N2C(C(=O)[O-])=C(C[n+]3ccccc3)CS[C@H]12)c1csc(N)n1)C(=O)O [ceftazidime] | > 1830 | > 7.32 | 750 | – | –
2 | CC(C)(O/N=C(\C(=O)N[C@@H]1C(=O)N2C(C(=O)[O-])=C(C[N+]3(CCNC(=O)c4ccc(O)c(O)c4Cl)CCCC3)CS[C@H]12)c1csc(N)n1)C(=O)O [cefiderocol] | – | > 5.32 | – | 63 | 83.8
